Calls of active or inactive are those of the source. The calls are words filed in the database; no cut-off is given here.
Assays:
[1] = Cmax in Cynomolgus monkey at 3 mg/kg, po; type: ADME, organism-based, Macaca fascicularis; conditions: in vivo
[2] = Oral bioavailability in Beagle dog at 10 mg/kg; type: ADME, organism-based, Canis lupus familiaris; conditions: in vivo
[3] = Volume of distribution at steady state in Beagle dog at 1 mg/kg, iv; type: ADME, organism-based, Canis lupus familiaris; conditions: in vivo, read-out: Vdss
[4] = Oral bioavailability in Cynomolgus monkey at 3 mg/kg; type: ADME, organism-based, Macaca fascicularis; conditions: in vivo
[5] = Volume of distribution at steady state in Cynomolgus monkey at 1 mg/kg, iv; type: ADME, organism-based, Macaca fascicularis; conditions: in vivo, read-out: Vdss
[6] = Half life in Sprague-Dawley rat at 0.5 mg/kg, iv; type: ADME, organism-based; conditions: in vivo
[7] = Tmax in Sprague-Dawley rat at 3 mg/kg, po; type: ADME, organism-based; conditions: in vivo
[8] = Metabolic stability in human liver microsomes assessed as intrinsic clearance; type: ADME, Microsome; conditions: read-out: CLH
[9] = C0 in Beagle dog at 1 mg/kg, iv; type: ADME, organism-based, Canis lupus familiaris; conditions: in vivo
[10] = C0 in Cynomolgus monkey at 1 mg/kg, iv; type: ADME, organism-based, Macaca fascicularis; conditions: in vivo
[11] = Half life in Cynomolgus monkey at 3 mg/kg, po; type: ADME, organism-based, Macaca fascicularis; conditions: in vivo
[12] = biological target: T1, Potassium channel subfamily K member 13 (Homo sapiens, UniProt Q9HB14); experiment: Inhibition of human KCNK13 transfected in HEK293 cells assessed as reduction in thallium influx incubated for 15 mins in dark by FLIPR assay; type: cell-based
T1 sequence (Q9HB14 whole entry): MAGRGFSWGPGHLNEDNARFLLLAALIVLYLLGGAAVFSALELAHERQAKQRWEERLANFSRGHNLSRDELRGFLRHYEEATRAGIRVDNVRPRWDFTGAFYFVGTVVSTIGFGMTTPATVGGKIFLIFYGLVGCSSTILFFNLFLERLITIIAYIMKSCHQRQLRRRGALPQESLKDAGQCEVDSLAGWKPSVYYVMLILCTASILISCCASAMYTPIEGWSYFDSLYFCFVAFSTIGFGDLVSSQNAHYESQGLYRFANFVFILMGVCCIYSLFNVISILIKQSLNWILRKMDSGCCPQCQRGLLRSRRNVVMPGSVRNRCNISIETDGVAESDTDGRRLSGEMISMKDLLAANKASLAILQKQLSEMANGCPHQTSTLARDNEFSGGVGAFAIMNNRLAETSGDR

[13] = Cmax in Beagle dog at 10 mg/kg, po; type: ADME, organism-based, Canis lupus familiaris; conditions: in vivo
[14] = biological target: T1, Potassium channel subfamily K member 13; experiment: Inhibition of human KCNK13 transfected in HEK293 cells; type: cell-based
[15] = Metabolic stability in mouse liver microsomes assessed as intrinsic clearance; type: ADME, Microsome; conditions: read-out: CLH
[16] = biological target: T2, Potassium channel subfamily K member 13 (Mus musculus, UniProt Q8R1P5); experiment: Inhibition of mouse KCNK13 transfected in HEK293 cells; type: cell-based
T2 sequence (Q8R1P5 whole entry): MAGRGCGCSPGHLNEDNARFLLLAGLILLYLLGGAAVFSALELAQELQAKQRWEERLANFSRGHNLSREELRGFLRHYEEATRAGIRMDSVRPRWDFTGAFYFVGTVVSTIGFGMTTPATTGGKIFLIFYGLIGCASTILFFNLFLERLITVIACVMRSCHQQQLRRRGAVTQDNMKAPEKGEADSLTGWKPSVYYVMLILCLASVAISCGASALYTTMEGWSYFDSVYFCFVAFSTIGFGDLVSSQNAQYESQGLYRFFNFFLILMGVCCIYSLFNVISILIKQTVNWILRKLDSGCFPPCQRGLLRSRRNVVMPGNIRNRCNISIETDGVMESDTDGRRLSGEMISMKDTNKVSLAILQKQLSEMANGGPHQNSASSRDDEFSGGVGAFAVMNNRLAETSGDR

[17] = AUC (0 to infinity) in Sprague-Dawley rat at 3 mg/kg, po; type: ADME, organism-based; conditions: in vivo
[18] = Clearance in Beagle dog at 1 mg/kg, iv; type: ADME, organism-based, Canis lupus familiaris; conditions: in vivo
[19] = Protein binding in mouse brain assessed as unbound fraction by equilibrium dialysis; type: ADME, tissue-based
[20] = Half life in Sprague-Dawley rat at 3 mg/kg, po; type: ADME, organism-based; conditions: in vivo
[21] = biological target: T3, Potassium channel subfamily K member 13 (Homo sapiens) (UniProt Q9HB14); experiment: Inhibition of human KCNK13 transfected in HEK293 cells assessed as reduction in thallium influx incubated for 15 mins in dark by FLIPR assay relative to control; type: cell-based
T3 sequence (whole entry): T1 sequence (Q9HB14 whole entry)

[22] = Protein binding in mouse plasma assessed as unbound fraction by equilibrium dialysis; type: ADME, cell-free
[23] = Half life in Beagle dog at 1 mg/kg, iv; type: ADME, organism-based, Canis lupus familiaris; conditions: in vivo
[24] = Tmax in Beagle dog at 10 mg/kg, po; type: ADME, organism-based, Canis lupus familiaris; conditions: in vivo
[25] = Clearance in Cynomolgus monkey at 1 mg/kg, iv; type: ADME, organism-based, Macaca fascicularis; conditions: in vivo
[26] = Cmax in Sprague-Dawley rat at 3 mg/kg, po; type: ADME, organism-based; conditions: in vivo
[27] = biological target: T2, Potassium channel subfamily K member 13; experiment: Inhibition of mouse KCNK13 transfected in HEK293 cells assessed as reduction in thallium influx incubated for 15 mins in dark by FLIPR assay; type: cell-based
[28] = AUC (0 to infinity) in Beagle dog at 1 mg/kg, iv; type: ADME, organism-based, Canis lupus familiaris; conditions: in vivo
[29] = species on record: Mus musculus; experiment: Effect on IL-1beta release in LPS-induced C57Bl6 mouse hippocampus upto 5 uM treated for 1 hr by ELISA; type: functional, tissue-based
[30] = biological target: NACHT, LRR and PYD domains-containing protein 3 (Mus musculus) (UniProt Q8R4B8); experiment: Inhibition of NLRP3 inflammasome-mediated IL-1beta release in LPS-primed neonatal C57BL/6 P1-4 mouse microglia pretreated for 30 mins followed by media removal and compound re-addition with K+-free buffer measured after 2 hrs by ELISA relative to control; type: cell-based; conditions: time 150.0 min
NACHT, LRR and PYD domains-containing protein 3 (Mus musculus), sequence (Q8R4B8 whole entry, the tested form may be a part): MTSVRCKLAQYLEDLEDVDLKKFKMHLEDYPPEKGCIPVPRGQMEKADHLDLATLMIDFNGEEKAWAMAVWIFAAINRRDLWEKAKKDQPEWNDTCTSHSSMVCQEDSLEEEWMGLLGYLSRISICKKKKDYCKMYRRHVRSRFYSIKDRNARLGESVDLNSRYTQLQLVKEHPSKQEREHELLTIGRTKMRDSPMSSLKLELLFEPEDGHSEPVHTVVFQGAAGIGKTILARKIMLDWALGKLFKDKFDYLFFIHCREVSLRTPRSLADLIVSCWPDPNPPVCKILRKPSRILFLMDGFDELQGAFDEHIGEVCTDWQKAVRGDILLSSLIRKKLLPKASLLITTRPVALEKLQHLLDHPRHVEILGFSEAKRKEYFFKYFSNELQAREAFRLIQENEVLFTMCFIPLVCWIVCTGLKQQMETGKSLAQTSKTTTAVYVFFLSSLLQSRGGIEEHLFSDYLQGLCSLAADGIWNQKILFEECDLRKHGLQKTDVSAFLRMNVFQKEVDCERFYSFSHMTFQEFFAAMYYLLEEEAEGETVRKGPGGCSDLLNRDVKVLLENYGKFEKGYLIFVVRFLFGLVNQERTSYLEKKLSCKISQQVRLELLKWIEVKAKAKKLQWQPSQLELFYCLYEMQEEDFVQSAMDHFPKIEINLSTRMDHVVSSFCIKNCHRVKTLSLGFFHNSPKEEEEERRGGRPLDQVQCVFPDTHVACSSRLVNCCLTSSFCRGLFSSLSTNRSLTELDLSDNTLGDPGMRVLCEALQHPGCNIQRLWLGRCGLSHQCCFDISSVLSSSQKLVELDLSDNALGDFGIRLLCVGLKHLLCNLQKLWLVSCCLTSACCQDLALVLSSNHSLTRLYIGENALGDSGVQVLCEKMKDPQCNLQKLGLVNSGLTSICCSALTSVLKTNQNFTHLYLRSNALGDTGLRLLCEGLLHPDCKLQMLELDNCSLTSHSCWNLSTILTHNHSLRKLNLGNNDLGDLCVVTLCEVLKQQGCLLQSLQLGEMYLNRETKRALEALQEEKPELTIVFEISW

[31] = Metabolic stability in rat liver microsomes assessed as intrinsic clearance; type: ADME, Microsome; conditions: read-out: CLH
[32] = test system: HEK293; experiment: Inhibition of recombinant human KCNK6 transfected in HEK293 cells assessed as reduction in thallium influx at 30 uM incubated for 15 mins in dark by FLIPR assay relative to control; type: cell-based
[33] = Ratio of drug concentration in brain to plasma C57BL/6 mouse at 10 mg/kg, po measured after 4 hrs by LC-MS/MS analysis; type: ADME, organism-based; conditions: brain and plasma, read-out: BPR
[34] = test system: KCNK2 (Homo sapiens); experiment: Inhibition of recombinant human KCNK2 transfected in HEK293 cells assessed as reduction in thallium influx at 30 uM incubated for 15 mins in dark by FLIPR assay relative to control
[35] = AUC (0 to infinity) in Sprague-Dawley rat at 0.5 mg/kg, iv; type: ADME, organism-based; conditions: in vivo
[36] = Clearance in Sprague-Dawley rat at 0.5 mg/kg, iv; type: ADME, organism-based; conditions: in vivo
[37] = biological target: Voltage-dependent L-type calcium channel subunit alpha-1C (Homo sapiens, UniProt Q13936); experiment: Inhibition of CaV1.2 (unknown origin); type: toxicity
Voltage-dependent L-type calcium channel subunit alpha-1C, sequence (Q13936 whole entry): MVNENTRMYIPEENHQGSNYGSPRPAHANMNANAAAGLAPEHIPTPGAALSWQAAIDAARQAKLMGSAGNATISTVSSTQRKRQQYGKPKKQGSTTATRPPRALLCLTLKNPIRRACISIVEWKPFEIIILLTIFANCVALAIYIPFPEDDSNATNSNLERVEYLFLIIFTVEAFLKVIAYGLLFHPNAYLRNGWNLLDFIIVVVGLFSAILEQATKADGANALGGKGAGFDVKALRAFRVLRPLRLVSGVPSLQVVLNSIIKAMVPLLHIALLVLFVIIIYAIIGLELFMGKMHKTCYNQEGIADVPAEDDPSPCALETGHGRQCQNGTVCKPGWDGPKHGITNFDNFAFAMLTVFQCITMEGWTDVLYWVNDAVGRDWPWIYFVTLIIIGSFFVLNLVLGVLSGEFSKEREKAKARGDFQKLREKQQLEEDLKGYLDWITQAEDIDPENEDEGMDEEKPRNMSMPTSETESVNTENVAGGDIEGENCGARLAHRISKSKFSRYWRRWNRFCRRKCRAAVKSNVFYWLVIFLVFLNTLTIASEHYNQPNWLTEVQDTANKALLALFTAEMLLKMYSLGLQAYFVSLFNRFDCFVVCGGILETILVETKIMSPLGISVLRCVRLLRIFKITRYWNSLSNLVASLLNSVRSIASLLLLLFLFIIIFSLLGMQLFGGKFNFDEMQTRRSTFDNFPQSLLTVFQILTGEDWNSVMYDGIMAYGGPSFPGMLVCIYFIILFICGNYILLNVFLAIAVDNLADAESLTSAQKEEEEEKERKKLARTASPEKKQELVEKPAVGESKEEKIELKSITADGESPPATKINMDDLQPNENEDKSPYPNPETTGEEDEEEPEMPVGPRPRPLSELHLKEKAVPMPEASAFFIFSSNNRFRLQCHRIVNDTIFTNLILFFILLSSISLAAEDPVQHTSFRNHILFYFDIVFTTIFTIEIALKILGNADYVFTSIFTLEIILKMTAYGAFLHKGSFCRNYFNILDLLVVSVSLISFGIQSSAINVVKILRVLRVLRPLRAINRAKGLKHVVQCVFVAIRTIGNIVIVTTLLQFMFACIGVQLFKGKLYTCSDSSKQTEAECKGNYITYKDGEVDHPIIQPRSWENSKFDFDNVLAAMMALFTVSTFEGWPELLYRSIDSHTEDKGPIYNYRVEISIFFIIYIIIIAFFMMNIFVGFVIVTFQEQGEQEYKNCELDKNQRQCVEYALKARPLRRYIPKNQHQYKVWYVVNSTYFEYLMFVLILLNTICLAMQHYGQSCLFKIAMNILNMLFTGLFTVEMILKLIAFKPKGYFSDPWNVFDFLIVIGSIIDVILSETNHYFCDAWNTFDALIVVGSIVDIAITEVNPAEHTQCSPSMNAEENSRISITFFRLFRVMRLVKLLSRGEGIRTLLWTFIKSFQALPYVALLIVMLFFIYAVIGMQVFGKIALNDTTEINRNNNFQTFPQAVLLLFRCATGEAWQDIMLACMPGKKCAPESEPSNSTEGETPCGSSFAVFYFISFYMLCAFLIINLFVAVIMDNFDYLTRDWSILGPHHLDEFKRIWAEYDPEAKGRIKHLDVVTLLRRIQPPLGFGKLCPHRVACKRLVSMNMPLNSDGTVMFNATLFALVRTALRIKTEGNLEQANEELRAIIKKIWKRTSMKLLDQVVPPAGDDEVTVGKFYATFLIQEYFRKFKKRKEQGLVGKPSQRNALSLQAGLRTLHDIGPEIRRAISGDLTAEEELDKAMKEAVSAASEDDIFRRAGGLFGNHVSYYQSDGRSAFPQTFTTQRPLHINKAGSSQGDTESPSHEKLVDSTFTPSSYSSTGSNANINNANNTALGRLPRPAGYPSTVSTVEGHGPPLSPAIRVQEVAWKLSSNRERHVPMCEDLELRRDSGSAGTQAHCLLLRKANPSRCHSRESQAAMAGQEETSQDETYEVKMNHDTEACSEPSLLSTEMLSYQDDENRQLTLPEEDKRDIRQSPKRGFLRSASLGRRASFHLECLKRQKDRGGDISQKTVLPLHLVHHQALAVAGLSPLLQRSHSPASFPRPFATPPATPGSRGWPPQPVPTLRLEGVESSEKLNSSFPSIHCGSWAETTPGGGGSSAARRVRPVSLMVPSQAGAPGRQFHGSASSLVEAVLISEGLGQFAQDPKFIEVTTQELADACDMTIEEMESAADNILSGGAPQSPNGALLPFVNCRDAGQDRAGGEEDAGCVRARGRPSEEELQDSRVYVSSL

[38] = AUC (0 to infinity) in Cynomolgus monkey at 3 mg/kg, po; type: ADME, organism-based, Macaca fascicularis; conditions: in vivo
[39] = Volume of distribution at steady state in Sprague-Dawley rat at 0.5 mg/kg, iv; type: ADME, organism-based; conditions: in vivo, read-out: Vdss
[40] = AUC (0 to infinity) in Cynomolgus monkey at 1 mg/kg, iv; type: ADME, organism-based, Macaca fascicularis; conditions: in vivo
[41] = biological target: Sodium channel protein type 5 subunit alpha (Homo sapiens, UniProt Q14524); experiment: Inhibition of NaV1.5 (unknown origin); type: toxicity

Nc1nonc1-c1nc2cccc(F)c2n1Cc1cccnn1
Cmax [1]: 165 ng/mL | F [2]: 41% | Vd [3]: 1.42 L/kg | bioavailability [4]: 24% | Vd [5]: 1.45 L/kg | half-life [6]: 1 h | Tmax [7]: 1 h | microsomal CLint [8]: < 9.6 µL/min/mg | C0 [9]: 626 ng/mL | C0 [10]: 896 ng/mL | half-life [11]: 1.9 h | IC50 [12]: 41 nM | Cmax [13]: 241 ng/mL | IC50 [14]: 41 nM | microsomal CLint [15]: < 9.6 µL/min/mg | IC50 [16]: 28 nM | AUC(0-inf) [17]: 1240 ng·h/mL | clearance [18]: 38 mL/min/kg | fraction unbound [19]: 0.136 | half-life [20]: 2 h | Imax [21]: 100% | fraction unbound [22]: 0.173 | half-life [23]: 0.5 h | Tmax [24]: 1.25 h | clearance [25]: 22 mL/min/kg | Cmax [26]: 468 ng/mL | IC50 [27]: 28 nM | AUC [28]: 438 ng·h/mL | Activity [29]: inactive | Imax [30]: 59.1% | microsomal CLint [31]: 9.9 µL/min/mg | Imax [32]: 10.7% | Kp at 4 h [33]: 0.84 | Imax [34]: 17.4% | AUC(0-inf) [35]: 222 ng·h/mL | clearance [36]: 35 mL/min/kg | inhibition (INH) [37]: Not Active | AUC(0-inf) [38]: 546 ng·h/mL | Vd [39]: 1.85 L/kg | AUC(0-inf) [40]: 782 ng·h/mL | inhibition (INH) [41]: Not Active

From ChEMBL document CHEMBL5634193, “Discovery of CVN293, a Brain Permeable KCNK13 (THIK-1) Inhibitor Suitable for Clinical Assessment” (ACS Med Chem Lett, 2024)
